Laboratory results as given in patent US20230364205A1, “COMPOSITIONS AND METHODS FOR TREATING SERRATED COLORECTAL CANCER” (SANFORD BURNHAM PREBYS MEDICAL DISCOVERY INSTITUTE, priority 2020, published 2023).
Entries after “also recorded” stand apart in the source; their conditions may differ.

What was measured:
[1] = test system: serrated aPKC-DKO^IEC tumors; assay: PVHA treatment of aPKC-DKO^IEC mice; format: in vivo, mouse
Description: Mice treatment with PVHA: For the hyaluronidase-specific inhibition experiment, 11-week-old aPKC-DKO^IEC mice were injected intravenously twice per week with a low dose of 0.0375 mg or high dose of 0.2 mg/Kg of PVHA (Halozyme) for 3 weeks until they were sacrificed. Control mice were treated with vehicle.
Histology, immunohistochemistry: Organs were isolated, rinsed in ice-cold PBS, fixed in 10% neutral buffered formalin overnight at 4° C., dehydrated, and embedded in paraffin. For Masson TriChrome staining, the sections (5 μm) were deparaffinized, rehydrated, and then stained with the Trichrome Stain (Masson) Kit (Sigma-Aldrich, #HT15) following the manufacturer's instructions. For hyaluronan staining, sections (5 μm) were deparaffinized, rehydrated, and then incubated with biotinylated hyaluronan binding protein (Millipore Sigma, #385911) overnight at 4° C., followed by incubation with streptavidin HRP conjugate (Invitrogen, #434323). Staining was developed using diaminobenzidine. For CD8 staining, sections (5 μm) were deparaffinized, rehydrated, and then treated for antigen retrieval (Citrate, pH6) with heat. After blocking in Protein Block Serum-Free solutions (DAKO), tissues were incubated with primary antibody (anti-mouse CD8 (BD, #557654) overnight at 4° C. followed by incubation with biotinylated secondary antibody. Endogenous peroxidase was quenched in 3% H2O2 in water for 10 min at room temperature. Antibodies were visualized with avidin/biotin complex (Vectastain Elite; Vector Laboratories) using diaminobenzidine as the chromogen.

[2] = test system: DKO^IEC mouse tumors; assay: TGF-βR1-specific inhibition experiment (galunisertib) in DKO^IEC mice; format: in vivo
Description: For CD8+ T cell depletion (FIG. 4, Panels A-L), 10-week-old LKO^IEC mice were injected intraperitoneally with 200 μg of anti-CD8 antibody (clone 2.43) or control IgG twice a week for 5 weeks until they were sacrificed. For the TGF-βR1-specific inhibition experiment, 10-week-old DKO^IEC mice were treated twice a day with a dose of 10 mg of galunisertib (Tauriello et al., 2018) per os for 6 weeks until they were sacrificed. Control mice were treated with vehicle. For checkpoint immunotherapy, either 10-week-old or 13-week-old DKO^IEC mice were injected intraperitoneally with a dose of 10 mg/kg (body mass) of anti-PD-L1 antibody (clone 6E11) twice a week for 3 weeks until they were sacrificed. For the combination therapy of anti-PD-L1 antibody and TGF-βR1-specific inhibitor, 23-week-old DKO^IEC mice were treated twice a day with a dose of 10 mg of galunisertib per os and injected intraperitoneally with a dose of 10 mg/kg (body mass) of anti-PD-L1 antibody twice a week for 3 weeks until they were sacrificed. Anti-PD-L1 antibody was provided by de Sauvage FJ (Genentech).
Organs were isolated, rinsed in ice-cold PBS, fixed in 10% neutral buffered formalin overnight at 4° C., dehydrated, and embedded in paraffin. Sections (5 μm) were stained with hematoxylin and eosin (H&E). For immunohistochemistry, sections were deparaffinized, rehydrated, and then treated for antigen retrieval. After blocking in Protein Block Serum-Free solutions (DAKO), tissues were incubated with primary antibody overnight at 4° C. followed by incubation with biotinylated secondary antibody. Endogenous peroxidase was quenched in 3% H2O2 in water for 10 min at room temperature. Antibodies were visualized with avidin/biotin complex (e.g., Vectastain Elite; Vector Laboratories) using diaminobenzidine as the chromogen. For immunofluorescence, fresh frozen organs were embedded in Tissue-Tek OCT compound (e.g., Sakura) and section of 10 μm were fixed in methanol, washed with PBS and then incubated with the primary antibodies. Washed sections were incubated with Alexa-conjugated secondary antibodies (e.g., Life Technologies) and examined with a Zeiss LSM 710 NLO Confocal Microscope. In situ hybridization for murine Ereg was carried out using RNAscope Multiplex Fluorescent Assay kit (Advanced Cell Diagnostics) following manufacturer's instructions. The probe corresponding to CDS region of murine Ereg (Accession #: NM_007950.2, probe region: 116-1496; Advanced Cell Diagnostics; Cat #: 437981). Cell death was analyzed using the In-Situ Cell Death Detection kit, TMR red (Thermo) for TUNEL. Masson's Trichrome staining was carried out following manufacturer's instructions (Sigma HT15-1KT).
Flow cytometry experiments were performed using fresh small intestinal tissue and organoid preparations. For the analyses of small intestinal tissue, a half part of duodenum, jejunum, and ileum was used for quantitative flow cytometry analysis of immune cell population of lamina propria. Briefly, small intestines were rinsed in cold PBS, minced into small pieces, incubated in HBSS with EDTA (5 mM) and digested with collagenase (0.05 mg/ml) for 30 min at 37° C., followed by a discontinuous Percoll separation method (40 and 75%) to purify immune cells. The cells concentrated at the interface were collected and washed in cold PBS. Red blood cells were removed with lysing buffer (BD Pharm Lyse) and live cells were counted using Trypan blue and then saturated with mouse Fc Block (purified anti-mouse CD16/CD32; 1:50; clone 2.4G2; BD Pharmingen) 30 min at 4° C. before incubating with specific dyed antibodies.
For IL-17A intracellular staining, cells were pretreated with 50 ng/ml of phorbolmyristate acetate and 500 ng/ml of ionomycin in the presence of 10 μg/ml of brefeldin A for 3 hr at 37° C. 5% CO2. […]

[3] = test system: WT organoids; assay: interferon response of WT small intestine organoids to 5-AZA-CdR; format: cell-based, mouse
Description: (§1) For generation of small intestine organoids, organoids were collected in ice-cold TrypLE solution (e.g., Life Technologies) to remove Matrigel, then pipetted 5 cycles and incubated 5 min at 37° C. to obtain single-cell suspension. Cells were washed twice in PBS 3% FBS and resuspended at room temperature with PBS with 100 μg/ml DNase I for 10 min before staining with anti-H-2Kb (clone AF6-88.5.5.3; eBioscience). For antigen presentation in MODE-K cells, cells were washed in PBS, trypsinized and wash with warm medium. Then, cells were resuspended and stained with anti-H-2Kk (clone 36-7-5; BioLegend) and anti-H-2Dk (clone 15-5-5; BD Pharmingen). Dead cells were excluded after 7-AAD staining. All flow cytometry experiments were performed on a BD LSRFortessa 14-colors analyzer at the Sanford Burnham Prebys Medical Discovery Institute Shared FACS Facility and flow cytometry data were analyzed using FlowJo software (Tree Star Inc.).
(§2) Intestinal epithelial cell […] isolation was performed as described previously Llado et al., Repression of Intestinal Stem Cell Function and Tumorigenesis through Direct Phosphorylation of β-catenin and Yap by PKCζ. Cell Reports (2015) 10,740-754, with some modification. […] Adenoma fragments were counted after isolation and a total of 250-500 fragments were mixed with 100 μl of growth factor reduced-Matrigel and plated in 12- or 24-well plates. […]

[4] = test system: ZKO organoids; assay: interferon response of ZKO (PKCζ-lacking) small intestine organoids to 5-AZA-CdR; format: cell-based, mouse
Description: as §1, §2

[5] = aPKC-DKO^IEC mice, i.v. twice per week for 3 weeks from week 11
[6] = 10-week-old DKO^IEC mice, 10 mg per os twice a day for 6 weeks
[7] = 3 μM for 24 hours, then drug-free culture, qRT-PCR

Pegvorhyaluronidase alfa [PVHA]
progression of SSA/Ps to the adenocarcinoma stage ([1]; 11-week-old aPKC-DKO^IEC mice, i.v. twice per week for 3 weeks, low and high dose): suppressed
number of CD8+ T cells stained in the tumor tissue (infiltration of CD8+ T cells) ([1]; CD8 staining of small intestinal tumors, compared to vehicle-treated samples): substantially increased; also recorded: increases
collagen deposition in the tumors ([1]; Masson trichrome staining of small intestinal tumors): reduced
tumor load [1, 5]: reduced
tumor number [1, 5]: reduced
tumor size [1, 5]: reduced
serrated tumors in aPKC-DKO^IEC mice ([1]; figure legends FIG. 17 and FIG. 18): reduces
incidence of invasive cancer ([1]; high dose of 0.2 mg/Kg, i.v. twice per week for 3 weeks from week 11): reduced
tumor burden ([1]; high dose of PVHA): reduce tumor burden substantially
hyaluronan deposition in the tumors ([1]; hyaluronan staining of small intestinal tumors, low dose of PVHA (0.0375 mg/kg)): reduced
incidence of invasive cancer ([1]; low dose of 0.0375 mg, i.v. twice per week for 3 weeks from week 11): reduced
tumor burden ([1]; low dose of PVHA): reduce tumor burden substantially

Cc1cccc(-c2nn3c(c2-c2ccnc4ccc(C(N)=O)cc24)CCC3)n1 [galunisertib]
incidence of invasive cancer [2, 6]: reduced
progression of SSA/P to the adenocarcinoma stage [2, 6]: suppressed
tumor load [2, 6]: did not reduce
tumor number [2, 6]: did not reduce
tumor size [2, 6]: did not reduce
proportion of PD-L1+/CD45+ cells infiltrating DKO^IEC tumors ([2]; CD45/PD-L1 staining): not affected
collagen deposition ([2]; Masson's trichrome staining of small intestinal tumors, DKO^IEC mice): inhibition
proportion of CD8+ T cells ([2]; flow cytometry, DKO^IEC tumors): did not significantly change
proportion of CD11b+ myeloid cells ([2]; flow cytometry, DKO^IEC tumors): did not significantly change
proportion of Th17 cells in the tumors ([2]; flow cytometry, DKO^IEC tumors): reduction
proportion of Treg cells ([2]; flow cytometry, DKO^IEC tumors): did not significantly change
expression of TGF-β-responsive genes, such as Angptl2, Cdkn2b, Il11, and Ereg ([2]; qRT-PCR mRNA levels, DKO^IEC mice): reduced expression
stromal phospho-SMAD2 ([2]; staining of small intestinal tumors, DKO^IEC mice): inhibition

Nc1ncn([C@H]2C[C@H](O)[C@@H](CO)O2)c(=O)n1 [5-AZA-CdR, 5-aza-2-deoxycytidine]
expression of interferon-responsive genes Irf7, Oas1a, Isg15, and Cxcl10 [3, 7]: robustly induced
MHC class I long-chain H-2K^b on the surface ([3]; flow cytometry): upregulated
expression of interferon-responsive genes Irf7, Oas1a, Isg15, and Cxcl10 [4, 7]: severely abrogated
MHC class I long-chain H-2K^b on the surface ([4]; flow cytometry): but not on ZKO organoids
